According to patent US11780830B2, “Triazolone derivatives or salts thereof and pharmaceutical compositions comprising the same” (YUHAN CORPORATION, priority 2018, dated 2023):
Structures can show the parent of a compound that is named as a salt.

Assays:
Assay type in all cases: biochemical
[1] = molecular target: T1, recombinant human VAP-1 (Homo sapiens, UniProt Q16853); test: Activity on recombinant human VAP-1, HRP-coupled Amplex Red hydrogen peroxide assay; details: substrate 1 mM benzylamine; compound incubated with enzyme at 37° C. for 30 minutes; pH 7.4; read-out: Inhibitory Activity (IC50, nM) human VAP-1
T1 construct: purchased R&D systems
T1 sequence (Q16853 1-763): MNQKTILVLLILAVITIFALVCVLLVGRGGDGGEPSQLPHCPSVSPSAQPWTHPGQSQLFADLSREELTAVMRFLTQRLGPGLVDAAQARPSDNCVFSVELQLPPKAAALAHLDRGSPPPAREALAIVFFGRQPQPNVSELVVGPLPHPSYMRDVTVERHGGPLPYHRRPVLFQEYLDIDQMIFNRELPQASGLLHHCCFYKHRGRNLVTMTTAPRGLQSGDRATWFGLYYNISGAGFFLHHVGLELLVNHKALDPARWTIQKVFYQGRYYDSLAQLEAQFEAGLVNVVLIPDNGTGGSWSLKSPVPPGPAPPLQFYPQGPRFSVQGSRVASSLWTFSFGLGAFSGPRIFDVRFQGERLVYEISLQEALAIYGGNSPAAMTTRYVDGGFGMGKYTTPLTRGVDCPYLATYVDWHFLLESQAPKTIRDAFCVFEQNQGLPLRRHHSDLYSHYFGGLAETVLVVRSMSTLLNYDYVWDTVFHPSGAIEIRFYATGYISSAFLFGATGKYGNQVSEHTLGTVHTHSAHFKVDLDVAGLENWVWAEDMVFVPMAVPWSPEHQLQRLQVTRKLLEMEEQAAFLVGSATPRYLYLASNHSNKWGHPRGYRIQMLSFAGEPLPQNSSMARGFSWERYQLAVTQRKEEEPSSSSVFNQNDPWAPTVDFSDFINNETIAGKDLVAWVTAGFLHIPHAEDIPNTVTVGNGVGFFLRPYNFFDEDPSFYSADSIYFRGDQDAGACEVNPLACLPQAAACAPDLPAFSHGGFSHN
How it was run: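 Compounds were preincubated with purified enzyme in 50 mM sodium phosphate pH 7.4 at 37 °C for 30 min, then 200 uM Amplex Red, 1 mM benzylamine and 1 U/mL HRP were added. Resorufin fluorescence (ex 544/em 590 nm) was followed over 1-2 h; IC50 came from 4-parameter fits of signal-rate inhibition.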

[2] = molecular target: T2, recombinant human MAO-A (monoamine oxidase-A) (Homo sapiens, UniProt P21397); test: Activity on recombinant human MAO-A, method similar to the VAP-1 assay; details: substrate 0.5 mM tyramine; read-out: Inhibitory Activity (IC50, nM) MAO-A
T2 construct: purchased Sigma-Aldrich
T2 sequence (P21397 1-527): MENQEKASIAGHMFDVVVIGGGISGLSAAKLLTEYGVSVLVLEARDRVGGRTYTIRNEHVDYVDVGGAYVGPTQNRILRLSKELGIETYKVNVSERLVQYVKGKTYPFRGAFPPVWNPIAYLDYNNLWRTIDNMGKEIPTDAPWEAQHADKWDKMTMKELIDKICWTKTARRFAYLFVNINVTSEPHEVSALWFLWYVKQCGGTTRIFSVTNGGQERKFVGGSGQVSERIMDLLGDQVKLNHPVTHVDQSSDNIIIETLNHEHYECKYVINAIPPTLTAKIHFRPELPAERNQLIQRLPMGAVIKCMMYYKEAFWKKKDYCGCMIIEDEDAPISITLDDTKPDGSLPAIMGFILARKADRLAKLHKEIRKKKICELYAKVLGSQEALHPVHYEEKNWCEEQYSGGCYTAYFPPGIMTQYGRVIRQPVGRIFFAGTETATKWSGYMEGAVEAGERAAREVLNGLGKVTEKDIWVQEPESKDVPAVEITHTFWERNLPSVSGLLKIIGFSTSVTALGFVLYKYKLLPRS
How it was run: (§1)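 8-point, 1:3 dose-response, four-parameter logistic IC50 from reduction in fluorescence rate versus DMSO control. HRP/Amplex Red detection of H2O2 (ex 544, em 590 nm) after 30 min, 37 °C compound–enzyme preincubation in pH 7.4 phosphate buffer. MAO-A substrate: 0.5 mM tyramine; MAO-B: 1 mM benzylamine.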

[3] = molecular target: T3, recombinant human MAO-B (monoamine oxidase-B) (Homo sapiens, UniProt P27338); test: Activity on recombinant human MAO-B, method similar to the VAP-1 assay; details: substrate 1 mM benzylamine; read-out: Inhibitory Activity (IC50, nM) MAO-B
T3 construct: purchased Sigma-Aldrich
T3 sequence (P27338 1-520): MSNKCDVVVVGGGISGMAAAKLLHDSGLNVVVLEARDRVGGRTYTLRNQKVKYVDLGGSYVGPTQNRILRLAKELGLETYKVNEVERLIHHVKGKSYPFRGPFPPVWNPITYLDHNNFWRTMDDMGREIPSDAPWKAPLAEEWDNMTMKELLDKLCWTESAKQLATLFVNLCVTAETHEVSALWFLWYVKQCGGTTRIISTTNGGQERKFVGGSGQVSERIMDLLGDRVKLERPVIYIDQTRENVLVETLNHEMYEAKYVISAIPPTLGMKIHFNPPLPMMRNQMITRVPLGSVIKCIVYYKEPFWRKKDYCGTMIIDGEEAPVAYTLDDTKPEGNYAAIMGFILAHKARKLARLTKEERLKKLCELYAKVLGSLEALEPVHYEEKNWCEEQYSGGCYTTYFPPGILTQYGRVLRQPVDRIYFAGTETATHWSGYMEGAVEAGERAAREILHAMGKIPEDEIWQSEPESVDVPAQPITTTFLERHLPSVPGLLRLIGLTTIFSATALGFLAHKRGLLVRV
How it was run: as §1

[4] = molecular target: T4, recombinant human DAO (diamine oxidase) (Homo sapiens, UniProt P19801); test: Activity on recombinant human DAO, method similar to the VAP-1 assay; details: substrate 1 mM putrescine; read-out: Inhibitory Activity (IC50, nM) DAO
T4 construct: purchased R&D systems
T4 sequence (P19801 20-751): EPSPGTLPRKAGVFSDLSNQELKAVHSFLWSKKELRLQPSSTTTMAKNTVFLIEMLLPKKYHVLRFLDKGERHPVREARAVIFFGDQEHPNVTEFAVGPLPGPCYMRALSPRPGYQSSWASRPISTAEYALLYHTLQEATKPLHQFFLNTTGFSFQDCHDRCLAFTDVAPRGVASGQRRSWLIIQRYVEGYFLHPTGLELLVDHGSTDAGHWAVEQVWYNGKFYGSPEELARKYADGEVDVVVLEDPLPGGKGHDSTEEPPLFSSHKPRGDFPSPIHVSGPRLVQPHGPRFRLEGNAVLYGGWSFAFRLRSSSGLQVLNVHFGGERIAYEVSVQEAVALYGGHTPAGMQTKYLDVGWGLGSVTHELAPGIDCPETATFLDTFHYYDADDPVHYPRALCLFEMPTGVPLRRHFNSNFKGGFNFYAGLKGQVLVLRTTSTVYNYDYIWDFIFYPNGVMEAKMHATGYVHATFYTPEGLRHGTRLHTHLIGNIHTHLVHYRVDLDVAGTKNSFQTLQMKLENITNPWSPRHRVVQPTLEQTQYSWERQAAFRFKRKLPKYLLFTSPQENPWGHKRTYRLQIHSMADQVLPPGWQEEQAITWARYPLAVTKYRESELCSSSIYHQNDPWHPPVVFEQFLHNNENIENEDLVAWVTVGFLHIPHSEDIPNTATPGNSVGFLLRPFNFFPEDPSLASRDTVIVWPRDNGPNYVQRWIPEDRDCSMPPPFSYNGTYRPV
How it was run: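 Inhibition of recombinant human diamine oxidase (DAO, R&D systems) was assessed by the same approach as the VAP-1 assay, using 1 mM putrescine as substrate. Hydrogen peroxide formed was detected through an HRP-coupled Amplex Red reaction yielding fluorescent resorufin, read at 544 nm excitation and 590 nm emission. IC50 values came from four-parameter logistic fitting in GraphPad Prism.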

IC50 [1]	IC50 [2]	IC50 [3]	IC50 [4]	SMILES
0.5 nM	36000 nM	650 nM	280 nM	Cc1cc(-c2ccc(Cn3cnn(C/C(=C/F)CN)c3=O)s2)cc2c(C(F)(F)F)cc(=O)[nH]c12 [Example 83, 6-[5-[[1-[(E)-2-(aminomethyl)-3-fluoro-allyl]-5-oxo-1,2,4-triazol-4-yl]methyl]-2-thienyl]-8-methyl-4-(trifluoromethyl)-1H-quinolin-2-one]
0.2 nM	63000 nM	> 10000 nM	1300 nM	NC/C(=C\F)Cn1ncn(Cc2ccc(-c3ccc4c(c3)OCC(=O)N4)s2)c1=O [Example 84, 7-[5-(1-[(2E)-2-(aminomethyl)-3-fluoroprop-2-en-1-yl]-5-oxo-1,5-dihydro-4H-1,2,4-triazol-4-ylmethyl)thiophen-2-yl]-2H-1,4-benzoxazin-3(4H)-one hydrochloride]
0.3 nM	> 100000 nM	1700 nM	320 nM	NC/C(=C\F)Cn1ncn(Cc2ccc(-c3ccc4c(c3)SCC(=O)N4)s2)c1=O [Example 85, 7-[5-[[1-[(E)-2-(aminomethyl)-3-fluoro-allyl]-5-oxo-1,2,4-triazol-4-yl]methyl]-2-thienyl]-4H-1,4-benzothiazin-3-one hydrochloride]
0.2 nM	> 100000 nM	2500 nM	380 nM	CN1C(=O)COc2cc(-c3ccc(Cn4cnn(C/C(=C/F)CN)c4=O)s3)ccc21 [Example 86, 7-[5-[[1-[(E)-2-(aminomethyl)-3-fluoro-allyl]-5-oxo-1,2,4-triazol-4-yl]methyl]-2-thienyl]-4-methyl-1,4-benzoxazin-3-one hydrochloride]
0.4 nM	> 100000 nM	2700 nM	760 nM	CC1(C)Oc2cc(-c3ccc(Cn4cnn(C/C(=C/F)CN)c4=O)s3)ccc2NC1=O [Example 87, 7-[5-[[1-[(E)-2-(aminomethyl)-3-fluoro-allyl]-5-oxo-1,2,4-triazol-4-yl]methyl]-2-thienyl]-2,2-dimethyl-4H-1,4-benzoxazin-3-one]
0.3 nM	> 100000 nM	2400 nM	897 nM	Cc1c(-c2ccc(Cn3cnn(C/C(=C/F)CN)c3=O)s2)ccc2c1NC(=O)CC2 [Example 88, 7-[5-[[1-[(E)-2-(aminomethyl)-3-fluoro-allyl]-5-oxo-1,2,4-triazol-4-yl]methyl]-2-thienyl]-8-methyl-3,4-dihydro-1H-quinolin-2-one]
0.4 nM	24000 nM	660 nM	230 nM	NC/C(=C\F)Cn1ncn(Cc2ccc(-c3ccc4c(c3)NC(=O)CO4)s2)c1=O [Example 90, 6-[5-(1-[(2E)-2-(aminomethyl)-3-fluoroprop-2-en-1-yl]-5-oxo-1,5-dihydro-4H-1,2,4-triazol-4-ylmethyl)thiophen-2-yl]-2H-1,4-benzoxazin-3(4H)-one hydrochloride]
0.9 nM	> 10000 nM	3200 nM	340 nM	Cc1cc(-c2ccc(Cn3cnn(C/C(=C/F)CN)c3=O)s2)cc2c1OCC(=O)N2 [Example 91, 6-[5-(1-[(2E)-2-(aminomethyl)-3-fluoroprop-2-en-1-yl]-5-oxo-1,5-dihydro-4H-1,2,4-triazol-4-ylmethyl)thiophen-2-yl]-8-methyl-2H-1,4-benzoxazin-3(4H)-one hydrochloride]
0.2 nM	29000 nM	600 nM	350 nM	Cc1c(-c2ccc(Cn3cnn(C/C(=C/F)CN)c3=O)s2)ccc2c1NC(=O)CO2 [Example 92, 6-[5-[[1-[(E)-2-(aminomethyl)-3-fluoro-allyl]-5-oxo-1,2,4-triazol-4-yl]methyl]-2-thienyl]-5-methyl-4H-1,4-benzoxazin-3-one hydrochloride]
0.4 nM	54000 nM	1100 nM	230 nM	NC/C(=C\F)Cn1ncn(Cc2ccc(-c3cc4c(cc3F)OCC(=O)N4)s2)c1=O [Example 93, 6-[5-(1-[(2E)-2-(aminomethyl)-3-fluoroprop-2-en-1-yl]-5-oxo-1,5-dihydro-4H-1,2,4-triazol-4-ylmethyl)thiophen-2-yl]-7-fluoro-2H-1,4-benzoxazin-3(4H)-one hydrochloride]
0.3 nM	11000 nM	1700 nM	160 nM	NC/C(=C\F)Cn1ncn(Cc2ccc(-c3cc(F)c4c(c3)NC(=O)CO4)s2)c1=O [Example 94, 6-[5-[[1-[(E)-2-(aminomethyl)-3-fluoro-allyl]-5-oxo-1,2,4-triazol-4-yl]methyl]-2-thienyl]-8-fluoro-4H-1,4-benzoxazin-3-one hydrochloride]
0.25 nM	25000 nM	370 nM	240 nM	NC/C(=C\F)Cn1ncn(Cc2ccc(-c3ccc4c(c3Cl)NC(=O)CO4)s2)c1=O [Example 95, 6-[5-[[1-[(E)-2-(aminomethyl)-3-fluoro-allyl]-5-oxo-1,2,4-triazol-4-yl]methyl]-2-thienyl]-5-chloro-4H-1,4-benzoxazin-3-one hydrochloride]
